Earlier results in PMC5133935, “Hydrostatin-TL1, an Anti-Inflammatory Active Peptide from the Venom Gland of Hydrophis cyanocinctus in the South China Sea” (International Journal of Molecular Sciences, 2016).

Test system: TNF-α
Conditions: cited from earlier work
Description: Snake-derived products have been used as traditional Chinese medicines for centuries in China; however, their mechanisms of action and active constituents are still unknown. Snake venom, which is a mixture of proteins and peptides, has various biological properties including antitumor, anti-inflammatory, anti-stroke, and analgesic activities. […] Venom from s ...

Cathelicidin-BF
antimicrobial and anti-inflammatory properties: both antimicrobial and anti-inflammatory properties
expression and secretion of TNF-α: decreases the expression and secretion of TNF-α
